Experimental findings from patent US7355069B2, “Ortho-substituted benzoic acid derivatives for the treatment of insulin resistance” (AstraZeneca AB, priority 2002, dated 2008) are described below.

A word on the EC50: it is the midpoint of the concentration-response curve. Low values mean a more potent agent, high ones a less potent agent.

This experiment deals with T1, human PPAR alpha (Homo sapiens, UniProt Q07869).
T1 construct: expressed in transfected cells; host or cells: U2-OS (human osteogenic sarcoma), transient electroporation with pSG5-based expression vector
T1 sequence (Q07869 239-466 limits assumed): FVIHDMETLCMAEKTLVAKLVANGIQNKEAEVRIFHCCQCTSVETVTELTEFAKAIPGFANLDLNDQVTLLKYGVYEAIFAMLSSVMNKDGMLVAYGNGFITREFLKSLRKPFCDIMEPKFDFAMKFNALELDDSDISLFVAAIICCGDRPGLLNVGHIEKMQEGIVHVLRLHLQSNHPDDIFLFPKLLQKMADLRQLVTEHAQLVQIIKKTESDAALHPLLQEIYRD
The experiment is described as follows: GAL4-PPAR ligand binding domain luciferase reporter transactivation assay in transiently transfected U2-OS cells. The format is cell-based. Particulars: about 24 hours exposure, concentration giving 50% of maximal activation by reference compound (ETYA). As to the method: Compounds were dissolved in DMSO to obtain 16 mM stock solutions. Before assays, stock solutions were further diluted in DMSO and culture media.
U2-OS, (Osteogenic sarcoma, Human) was purchased from ATCC, USA. Cells were expanded and refrozen in batches from passage number six. Cells were cultured in Dulbecco's modified Eagle medium (DMEM) with 25 mM glucose, 2 mM glutamine or 4 mM L-alanyl-L-glutamine, 10% fetal calf serum, at 5% CO2. Phosphate buffered saline (PBS) without addition of calcium or magnesium was used. All cell culture reagents were from Gibco (USA) and 96-well cell culture plates were purchased from Wallach.
Standard recombinant DNA techniques were carried out as described by Ausubel (7). The Luciferase reporter vector, pGL5UAS (clone consists of five copies of the GAL4 DNA binding sequence, 5′-[…]-3′, cloned into the SacI/XhoI sites of pGL3-Promoter (Promega). The SacI/XhoI fragment carrying the UAS sites was constructed using annealed overlapping oligonucleotides.
Expression vectors used are based upon pSG5 (Stratagene). All vectors contain an EcoRI/NheI fragment encoding the DNA binding domain of GAL4 (encoding amino acid positions 1-145 of database accession number P04386) followed by an in-frame fusion to a fragment encoding the nuclear localisation sequence from T antigen of Polyoma Virus. The nuclear localisation sequence was constructed using annealed overlapping oligonucleotides creating NheI/KpnI sticky ends (5′-[…]-3′). The ligand binding domains from human and mouse PPARα and human and mouse PPARγ were PCR amplified as KpnI/BamHI fragments and cloned in frame to the GAL4 DNA binding domain and the nuclear localisation sequence. The sequence of all plasmid constructs used were confirmed by sequencing.
Frozen stocks of cells from passage number six were thawed and expanded to passage number eight before transfections. Confluent cells were trypsinised, washed and pelleted by centrifugation at 270×g for 2 minutes. The cell pellet was resuspended in cold PBS to a cell concentration of about 18×10^6 cells/ml. After addition of DNA, the cell suspension was incubated on ice for approximately 5 minutes before electroporation at 230 V, 960 μF in Biorad's Gene Pulser™ in 0.5 ml batches. A total of 50 μg DNA was added to each batch of 0.5 ml cells, including 2.5 μg expression vector, 25 μg reporter vector and 22.5 μg unspecific DNA (pBluescript, Stratagene).
After electroporation, cells were diluted to a concentration of 320'000 cells/ml in DMEM without phenol red, and approximately 25'000 cells/well were seeded in 96-well plates. In order to allow cells to recover, seeded plates were incubated at 37° C. for 3-4 hours before addition of test compounds. […]
Background: A reporter such as luciferase makes a cellular process visible.
For `CCCN(Cc1ccc(F)cc1F)C(=O)CCc1ccc(OCc2ccccc2C(=O)O)cc1` [Example 10, 2-[(4-{3-[(2,4-difluorobenzyl)(propyl)amino]-3-oxopropyl}phenoxy)methyl]benzoic acid], the EC50 came out at 168 nM.
The molecule `CCCCCCCN(Cc1ccc(F)cc1F)C(=O)CCc1ccc(OCc2ccccc2C(=O)O)cc1` [Example 5, 2-[(4-{3-[(2,4-Difluorobenzyl)(heptyl)amino]-3-oxopropyl}phenoxy)methyl]benzoic acid] yielded an EC50 of 163 nM. The EC50 values of the last two molecules are within 1.5-fold of each other.
In turn, `CCN(Cc1ccc(C(F)(F)F)cc1)C(=O)Cc1ccc(SCc2ccccc2C(=O)O)cc1` [Example 11, 2-({[4-(2-{Ethyl[4-(trifluoromethyl)benzyl]amino}-2-oxoethyl)phenyl]thio}methyl)benzoic acid] had an EC50 of 26 nM.
Turning to `CCN(Cc1ccc(Cl)cc1)C(=O)Cc1ccc(SCc2ccccc2C(=O)O)cc1` [Example 15, 2-{[(4-{2-[(4-Chlorobenzyl)(ethyl)amino]-2-oxoethyl}phenyl)thio]methyl}benzoic acid], the EC50 worked out at 27 nM.
